Bridge positions count the residues as written; N and C are the ends. Square brackets hold non-standard residues; d marks the D form. Peptide text beside a SMILES is read from it. * marks the point of attachment. Bip = N[C@@H](Cc1ccc(-c2ccccc2)cc1)C(=O)O; Phe(3-Me) = Cc1cccc(C[C@H](N)C(=O)O)c1; 4Pal = N[C@@H](Cc1ccncc1)C(=O)O; Cha = N[C@@H](CC1CCCCC1)C(=O)O; Carboxymethyl = O=C(O)C*; Nle = CCCC[C@H](N)C(=O)O; Orn = NCCC[C@H](N)C(=O)O; Aun = NCCCCCCCCCCC(=O)O; Dab = NCC[C@H](N)C(=O)O; Dap = NC[C@H](N)C(=O)O; AEEA = NCCOCCOCC(=O)O
Biological target: T1, PD-1/PD-L1 interaction (PE-labeled human PD-L1-Ig binding to Jurkat cell line over-expressing human PD-1) (Homo sapiens, UniProt Q15116)
T1 construct: expressed in transfected cells; host or cells: Jurkat
T1 sequence (Q15116 25-288): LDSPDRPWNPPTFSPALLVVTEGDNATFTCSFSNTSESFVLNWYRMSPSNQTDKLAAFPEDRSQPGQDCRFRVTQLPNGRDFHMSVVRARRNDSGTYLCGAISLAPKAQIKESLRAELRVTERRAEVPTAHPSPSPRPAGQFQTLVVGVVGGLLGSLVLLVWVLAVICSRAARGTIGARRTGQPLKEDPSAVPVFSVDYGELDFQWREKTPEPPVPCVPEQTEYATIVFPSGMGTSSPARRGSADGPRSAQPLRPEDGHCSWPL
Test: Jurkat-PD-1 Cell Binding High-Content Screening Assay (CBA)
Format: cell-based
Conditions: Jurkat cell line over-expressing human PD-1; PE-labeled PD-L1-Ig 20 nM final; read-out: Jurkat hPD1-PDL1 IC50
How it was run: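 Jurkat-hPD-1 cells, DMEM/10% FCS; cpd 2 h 37° C; PE-PD-L1-Ig 20 nM final, 1 h; 4% PFA fix + Hoechst 33342, 3× dPBS wash; high-content imaging read-out.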

SMILES | IC50
Cc1cccc(C[C@@H]2NC(=O)[C@H](CC(=O)O)NC(=O)[C@H](Cc3ccc(OCC(=O)O)cc3)NC(=O)[C@H](Cc3ccncc3)NC(=O)CSC[C@@H](C(=O)N[C@@H](CCN)C(=O)NCCOCCOCC(=O)NCCCCCCCCCCC(=O)O)NC(=O)[C@H](CCCN)NC(=O)[C@H](C(C)C)NC(=O)[C@H](CC3CCCCC3)NC(=O)[C@H](CCN)NC(=O)[C@@H](CC(C)C)NC(=O)[C@H](CCCN)NC(=O)[C@H](Cc3ccc(O)cc3)NC(=O)[C@H](Cc3ccc(-c4ccccc4)cc3)NC(=O)[C@H](C(C)C)NC2=O)c1 [Compound 2705] ({CH2CO}-[4Pal]Y(Carboxymethyl)D[Phe(3-Me)]V[Bip]Y[Orn][dL][Dab][Cha]V[Orn]C[Dab][AEEA][Aun]-OH; thioether N-14) | 8.3 nM
Cc1cccc(C[C@@H]2NC(=O)[C@H](CC(=O)O)NC(=O)[C@H](Cc3ccc(OCC(=O)O)cc3)NC(=O)[C@H](Cc3ccncc3)NC(=O)CSC[C@@H](C(=O)N[C@@H](CCN)C(=O)NCCCCCCCCCCC(=O)O)NC(=O)[C@H](CCCN)NC(=O)[C@H](C(C)C)NC(=O)[C@H](CC3CCCCC3)NC(=O)[C@H](CCN)NC(=O)[C@@H](CC(C)C)NC(=O)[C@H](CCCN)NC(=O)[C@H](Cc3ccc(O)cc3)NC(=O)[C@H](Cc3ccc(-c4ccccc4)cc3)NC(=O)[C@H](C(C)C)NC2=O)c1 [Compound 2706] ({CH2CO}-[4Pal]Y(Carboxymethyl)D[Phe(3-Me)]V[Bip]Y[Orn][dL][Dab][Cha]V[Orn]C[Dab][Aun]-OH; thioether N-14) | 18.4 nM
Cc1cccc(C[C@@H]2NC(=O)[C@H](CC(=O)O)NC(=O)[C@H](Cc3ccc(O)cc3)NC(=O)[C@H](Cc3ccncc3)NC(=O)CSC[C@@H](C(=O)N[C@@H](CCN)C(=O)NCCOCCOCC(=O)NCCCCCCCCCCC(=O)O)NC(=O)[C@H](CCCN)NC(=O)[C@H](C(C)C)NC(=O)[C@H](CC3CCCCC3)NC(=O)[C@H](CCN)NC(=O)[C@@H](CC(C)C)NC(=O)[C@H](CCCN)NC(=O)[C@H](Cc3ccc(O)cc3)NC(=O)[C@H](Cc3ccc(-c4ccccc4)cc3)NC(=O)[C@H](C(C)C)NC2=O)c1 [Compound 2707] ({CH2CO}-[4Pal]YD[Phe(3-Me)]V[Bip]Y[Orn][dL][Dab][Cha]V[Orn]C[Dab][AEEA][Aun]-OH; thioether N-14) | 20.8 nM
Cc1cccc(C[C@@H]2NC(=O)[C@H](CC(=O)O)NC(=O)[C@H](Cc3ccc(O)cc3)NC(=O)[C@H](Cc3ccncc3)NC(=O)CSC[C@@H](C(=O)N[C@@H](CCN)C(=O)NCCCCCCCCCCC(=O)O)NC(=O)[C@H](CCCN)NC(=O)[C@H](C(C)C)NC(=O)[C@H](CC3CCCCC3)NC(=O)[C@H](CCN)NC(=O)[C@@H](CC(C)C)NC(=O)[C@H](CCCN)NC(=O)[C@H](Cc3ccc(O)cc3)NC(=O)[C@H](Cc3ccc(-c4ccccc4)cc3)NC(=O)[C@H](C(C)C)NC2=O)c1 [Compound 2708] ({CH2CO}-[4Pal]YD[Phe(3-Me)]V[Bip]Y[Orn][dL][Dab][Cha]V[Orn]C[Dab][Aun]-OH; thioether N-14) | 62.8 nM
Cc1cccc(C[C@@H]2NC(=O)[C@H](CC(=O)O)NC(=O)[C@H](Cc3ccncc3)NC(=O)[C@H](Cc3ccc(OCC(=O)O)cc3)NC(=O)CSC[C@@H](C(=O)N[C@@H](CCN)C(=O)NCCOCCOCC(=O)NCCCCCCCCCCC(=O)O)NC(=O)[C@H](CCCN)NC(=O)[C@H](C(C)C)NC(=O)[C@H](CC3CCCCC3)NC(=O)[C@H](CCN)NC(=O)[C@@H](CC(C)C)NC(=O)[C@H](CCCN)NC(=O)[C@H](Cc3ccc(O)cc3)NC(=O)[C@H](Cc3ccc(-c4ccccc4)cc3)NC(=O)[C@H](C(C)C)NC2=O)c1 [Compound 2709] ({CH2CO}-Y(Carboxymethyl)[4Pal]D[Phe(3-Me)]V[Bip]Y[Orn][dL][Dab][Cha]V[Orn]C[Dab][AEEA][Aun]-OH; thioether N-14) | 8.4 nM
Cc1cccc(C[C@@H]2NC(=O)[C@H](CC(=O)O)NC(=O)[C@H](Cc3ccncc3)NC(=O)[C@H](Cc3ccc(OCC(=O)O)cc3)NC(=O)CSC[C@@H](C(=O)N[C@@H](CCN)C(=O)NCCCCCCCCCCC(=O)O)NC(=O)[C@H](CCCN)NC(=O)[C@H](C(C)C)NC(=O)[C@H](CC3CCCCC3)NC(=O)[C@H](CCN)NC(=O)[C@@H](CC(C)C)NC(=O)[C@H](CCCN)NC(=O)[C@H](Cc3ccc(O)cc3)NC(=O)[C@H](Cc3ccc(-c4ccccc4)cc3)NC(=O)[C@H](C(C)C)NC2=O)c1 [Compound 2710] ({CH2CO}-Y(Carboxymethyl)[4Pal]D[Phe(3-Me)]V[Bip]Y[Orn][dL][Dab][Cha]V[Orn]C[Dab][Aun]-OH; thioether N-14) | 18.6 nM
Cc1cccc(C[C@@H]2NC(=O)[C@H](CC(=O)O)NC(=O)[C@H](Cc3ccc(OCC(=O)O)cc3)NC(=O)[C@H](CN)NC(=O)CSC[C@@H](C(=O)N[C@@H](CCN)C(=O)NCCCCCCCCCCC(=O)O)NC(=O)[C@H]([C@@H](C)O)NC(=O)[C@H](C(C)C)NC(=O)[C@H](CC3CCCCC3)NC(=O)[C@H](CCN)NC(=O)[C@@H](CC(C)C)NC(=O)[C@H](CCCN)NC(=O)[C@H](Cc3ccc(O)cc3)NC(=O)[C@H](Cc3ccc(-c4ccccc4)cc3)NC(=O)[C@H](Cc3ccc(O)cc3)NC2=O)c1 [Compound 2711] ({CH2CO}-[Dap]Y(Carboxymethyl)D[Phe(3-Me)]Y[Bip]Y[Orn][dL][Dab][Cha]VTC[Dab][Aun]-OH; thioether N-14) | 10.4 nM
Cc1cccc(C[C@@H]2NC(=O)[C@H](CC(=O)O)NC(=O)[C@H](Cc3ccc(OCC(=O)O)cc3)NC(=O)[C@H](CN)NC(=O)CSC[C@@H](C(=O)N[C@@H](CCN)C(=O)NCCCCCCCCCCC(=O)O)NC(=O)[C@H](CO)NC(=O)[C@H](C(C)C)NC(=O)[C@H](CC3CCCCC3)NC(=O)[C@H](CCN)NC(=O)[C@@H](CC(C)C)NC(=O)[C@H](CCCN)NC(=O)[C@H](Cc3ccc(O)cc3)NC(=O)[C@H](Cc3ccc(-c4ccccc4)cc3)NC(=O)[C@H](Cc3ccc(O)cc3)NC2=O)c1 [Compound 2712] ({CH2CO}-[Dap]Y(Carboxymethyl)D[Phe(3-Me)]Y[Bip]Y[Orn][dL][Dab][Cha]VSC[Dab][Aun]-OH; thioether N-14) | 20.6 nM
Cc1cccc(C[C@@H]2NC(=O)[C@H](CC(=O)O)NC(=O)[C@H](Cc3ccc(OCC(=O)O)cc3)NC(=O)[C@H](CN)NC(=O)CSC[C@@H](C(=O)N[C@@H](CCN)C(=O)NCCCCCCCCCCC(=O)O)NC(=O)[C@H](CCC(N)=O)NC(=O)[C@H](C(C)C)NC(=O)[C@H](CC3CCCCC3)NC(=O)[C@H](CCN)NC(=O)[C@@H](CC(C)C)NC(=O)[C@H](CCCN)NC(=O)[C@H](Cc3ccc(O)cc3)NC(=O)[C@H](Cc3ccc(-c4ccccc4)cc3)NC(=O)[C@H](Cc3ccc(O)cc3)NC2=O)c1 [Compound 2713] ({CH2CO}-[Dap]Y(Carboxymethyl)D[Phe(3-Me)]Y[Bip]Y[Orn][dL][Dab][Cha]VQC[Dab][Aun]-OH; thioether N-14) | 7.7 nM
CCCC[C@@H]1NC(=O)[C@H](C(C)C)NC(=O)[C@H](CC2CCCCC2)NC(=O)[C@H](CCN)NC(=O)[C@@H](CC(C)C)NC(=O)[C@H](CCCN)NC(=O)[C@H](Cc2ccc(O)cc2)NC(=O)[C@H](Cc2ccc(-c3ccccc3)cc2)NC(=O)[C@H](Cc2ccc(O)cc2)NC(=O)[C@H](Cc2cccc(C)c2)NC(=O)[C@H](CC(=O)O)NC(=O)[C@H](Cc2ccc(OCC(=O)O)cc2)NC(=O)[C@H](CN)NC(=O)CSC[C@@H](C(=O)N[C@@H](CCN)C(=O)NCCCCCCCCCCC(=O)O)NC1=O [Compound 2714] ({CH2CO}-[Dap]Y(Carboxymethyl)D[Phe(3-Me)]Y[Bip]Y[Orn][dL][Dab][Cha]V[Nle]C[Dab][Aun]-OH; thioether N-14) | 406 nM
Cc1cccc(C[C@@H]2NC(=O)[C@H](CC(=O)O)NC(=O)[C@H](Cc3ccc(OCC(=O)O)cc3)NC(=O)[C@H](CN)NC(=O)CSC[C@@H](C(=O)N[C@@H](CCN)C(=O)NCCCCCCCCCCC(=O)O)NC(=O)[C@@H](CCC(N)=O)NC(=O)[C@H](C(C)C)NC(=O)[C@H](CC3CCCCC3)NC(=O)[C@H](CCN)NC(=O)[C@@H](CC(C)C)NC(=O)[C@H](CCCN)NC(=O)[C@H](Cc3ccc(O)cc3)NC(=O)[C@H](Cc3ccc(-c4ccccc4)cc3)NC(=O)[C@H](Cc3ccc(O)cc3)NC2=O)c1 [Compound 2715] ({CH2CO}-[Dap]Y(Carboxymethyl)D[Phe(3-Me)]Y[Bip]Y[Orn][dL][Dab][Cha]V[dQ]C[Dab][Aun]-OH; thioether N-14) | 8.9 nM
Cc1cccc(C[C@@H]2NC(=O)[C@H](CC(=O)O)NC(=O)[C@H](Cc3ccc(OCC(=O)O)cc3)NC(=O)[C@H](CN)NC(=O)CSC[C@@H](C(=O)N[C@@H](CCN)C(=O)NCCCCCCCCCCC(=O)O)NC(=O)[C@@H]([C@H](C)O)NC(=O)[C@H](C(C)C)NC(=O)[C@H](CC3CCCCC3)NC(=O)[C@H](CCN)NC(=O)[C@@H](CC(C)C)NC(=O)[C@H](CCCN)NC(=O)[C@H](Cc3ccc(O)cc3)NC(=O)[C@H](Cc3ccc(-c4ccccc4)cc3)NC(=O)[C@H](Cc3ccc(O)cc3)NC2=O)c1 [Compound 2716] ({CH2CO}-[Dap]Y(Carboxymethyl)D[Phe(3-Me)]Y[Bip]Y[Orn][dL][Dab][Cha]V[dT]C[Dab][Aun]-OH; thioether N-14) | 24.3 nM
Cc1cccc(C[C@@H]2NC(=O)[C@H](CC(=O)O)NC(=O)[C@H](Cc3ccc(OCC(=O)O)cc3)NC(=O)[C@H](CN)NC(=O)CSC[C@@H](C(=O)N[C@@H](CCN)C(=O)NCCCCCCCCCCC(=O)O)NC(=O)[C@H]([C@@H](C)O)NC(=O)[C@H](C(C)C)NC(=O)[C@H](CC3CCCCC3)NC(=O)[C@H](CCN)NC(=O)[C@@H](CC(C)C)NC(=O)[C@H](CCCN)NC(=O)[C@H](Cc3ccc(O)cc3)NC(=O)[C@H](Cc3ccc(-c4ccccc4)cc3)NC(=O)[C@H](C(C)C)NC2=O)c1 [Compound 2717] ({CH2CO}-[Dap]Y(Carboxymethyl)D[Phe(3-Me)]V[Bip]Y[Orn][dL][Dab][Cha]VTC[Dab][Aun]-OH; thioether N-14) | 17.1 nM
